The source of these data is patent US20020052491A1, “Method for the production of 2-chloro-2' -deoxyadenosine (cladribine) and its 3,5-di-O-p-toluoyl derivative” (priority 1999, published 2002).

The term pKa denotes the negative logarithm of the acid dissociation constant.

For data set [1] the following is noted: H-9 proton; cited from earlier work.
For data set [2], the system named is human melanoma cell lines. The following applies: some human melanoma cell lines; cited from earlier work.
The test system of a further data set is Hairy cell leukemia. To be noted: 50% growth inhibition, read-out: IC50 (nmol/L)**; cited from earlier work.
The test system of data set [3] is Mature erythroid colony forming units (mBFU-E). The following applies: cited from earlier work.
Data set [4] relates to dividing and non-dividing cells. The following applies: cited from earlier work.
Data set [5] concerns Erythroid progenitor cells. To be noted: decreases as maturation state rises; cited from earlier work.
The next data set concerns Peripheral lymphocytes. The following applies: cited from earlier work.
In data set [6] the test system is cell lines of bone tumors. The following applies: in vitro; cited from earlier work.
Data set [7] deals with Acute lymphoblastic leukemia. To be noted: drug concentration required to inhibit 50% of growth, read-out: IC50 (nmol/L)**; cited from earlier work.
A further data set has as its system myeloid cells. The following applies: cited from earlier work.
Another data set has as its system DAUDI cell line. Kind of data set: in vitro sensitivity, DAUDI cell line. The class given is cell-based. The following applies: Homo sapiens, 50% growth inhibition, Data Bio Sidus, read-out: IC50 (nmol/L)**. An excerpt: (§1) The in vitro effect of cladribine (2-CdA) has been studied on a number of cell lines, showing different degrees of sensitivity, represented by the IC50 value (concentration required to inhibit 50% of growth) on a case-by-case basis.

Another data set deals with Normal bone marrow. To be noted: cited from earlier work.
In the next data set the test system is B cells. To be noted: 50% growth inhibition, read-out: IC50 (nmol/L)**; cited from earlier work.
For data set [8], the system named is Acute myelogenous leukemia. The following applies: 50% growth inhibition, read-out: IC50 (nmol/L)**; cited from earlier work.
Data set [9] relates to Epstein Barr B lymphoblastoid cell lines. Kind of data set: in vitro sensitivity, Epstein Barr B lymphoblastoid cell lines. The class given is cell-based. The following applies: 50% growth inhibition, no source mark printed, read-out: IC50 (nmol/L)**.
Source text: as §1

Data set [10] deals with T lymphocyte colony forming cells. To be noted: cited from earlier work.
Data set [11] deals with Chronic lymphocytic leukemia. To be noted: 50% growth inhibition, read-out: IC50 (nmol/L)**; cited from earlier work.
Data set [12] has as its system lymphoblastoid leukemia cells. The following applies: 5 nmol/L; cited from earlier work.
Data set [13] relates to erythroid colony forming cells (CFU-E). The following applies: cited from earlier work.
A further data set relates to neuroblastoma cell line. The following applies: cited from earlier work.
In data set [14] the test system is granulocyte-macrophage colony forming units and erythrocyte burst forming units. To be noted: more immature progenitors (granulocyte-macrophage colony forming units and erythrocyte burst forming units); approximately; cited from earlier work.
A further data set relates to T cells. To be noted: 50% growth inhibition, read-out: IC50 (nmol/L)**; cited from earlier work.
In a further data set the test system is Multiple myeloma cells. The following applies: cited from earlier work.
A further data set deals with myeloid progenitor cell. The following applies: dose-dependent basis; cited from earlier work.
Another data set has as its system Non-Hodgkin's lymphoma. To be noted: 50% growth inhibition, read-out: IC50 (nmol/L)**; cited from earlier work.

Regarding `Nc1ncnc2nc[nH]c12` [adenine], in data set [1], the pKa was 9.80.
Turning to `Nc1nc(Cl)nc2c1ncn2[C@H]1C[C@H](O)[C@@H](CO)O1` [Cladribine, 2-chloro-2′-deoxyadenosine], in data set [2], the IC37 was 12 to 22 nmol/L. The IC50 with Hairy cell leukemia was 31 nmol/L; in [3], 0.038 µM; in data set [7] it was 34 nmol/L; with myeloid cells, 0.005 to 0.07 µM; in the data set on DAUDI cell line it was 210 nmol/L; in the data set with Normal bone marrow (Normal bone marrow, 50% growth inhibition, read-out: IC50 (nmol/L)**), 15 nmol/L. The IC50 was 6 to 67 nmol/L in the data set on B cells; 20 nmol/L in data set [8]; 200 nmol/L in data set [9]; 39 nmol/L in data set [11]; 0.056 µM in [13]; 0.06 µM in the data set with neuroblastoma cell line. Besides, the IC50 was 0.016 to 0.02 µM in [14]; 3 to 338 nmol/L with T cells; 1750 nmol/L with Multiple myeloma cells (Multiple myeloma, 50% growth inhibition, read-out: IC50 (nmol/L)**); 87 nmol/L with Non-Hodgkin's lymphoma. Further, the “activity in dividing and non-dividing cells” value in [4] was “active”. The “sensitivity of erythroid progenitor cells” value in data set [5] was “dose-dependent sensitivity”. In addition, the “viability of peripheral lymphocytes” value in the data set on Peripheral lymphocytes (100 nmol/l during 24 hours, followed by washing) is “retain viability”. Also, in the data set on Peripheral lymphocytes (seven-day incubation with 8 nmol/L), the cells die is listed as 60%. Also, the “activity on cell lines of bone tumors” value in data set [6] is “low activity”. Further, the “granulocyte and macrophage colony formation” value in the data set on Normal bone marrow (5 nmol/L, normal bone marrow) is listed as “no effect”. The “concentration needed for a complete inhibition of lymphoid colony formation” value in [10] (complete inhibition) is reported as 1280 nmol/L. Besides, in data set [10] (dose-dependent basis), the “T lymphocyte colony forming cells” value is listed as “inhibits”. The thymidine uptake entry in data set [12] is recorded as “inhibits”. For the same molecule, the “activity on multiple myeloma cells” value in the data set on Multiple myeloma cells (in vitro) is “low activity”. Also, the “myeloid progenitor cell growth” value with myeloid progenitor cell was “inhibits”.
